Target: T1, Membrane-associated tyrosine- and threonine-specific cdc2-inhibitory kinase (Homo sapiens, UniProt Q99640)
T1 sequence (Q99640 whole entry): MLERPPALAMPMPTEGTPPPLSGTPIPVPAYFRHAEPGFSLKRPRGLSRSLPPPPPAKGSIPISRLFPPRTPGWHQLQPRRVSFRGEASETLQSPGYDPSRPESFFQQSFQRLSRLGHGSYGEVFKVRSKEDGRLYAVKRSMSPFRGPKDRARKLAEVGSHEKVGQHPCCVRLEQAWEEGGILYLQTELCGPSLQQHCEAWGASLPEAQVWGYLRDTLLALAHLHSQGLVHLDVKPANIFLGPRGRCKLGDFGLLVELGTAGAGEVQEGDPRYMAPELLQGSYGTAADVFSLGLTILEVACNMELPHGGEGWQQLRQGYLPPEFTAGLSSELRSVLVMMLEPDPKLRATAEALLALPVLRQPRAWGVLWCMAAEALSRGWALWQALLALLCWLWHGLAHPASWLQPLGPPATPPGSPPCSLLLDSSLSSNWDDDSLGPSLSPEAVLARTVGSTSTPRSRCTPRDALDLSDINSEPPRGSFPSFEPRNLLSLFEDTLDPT
Test: Test for Binding to ATP Binding Site of MYT1
Procedure: Table 3-1 to 3-5: The binding capacity of each compound to the ATP binding site of MYT1 Kinase protein was evaluated. 5× Kinase Buffer A (manufactured by Thermo Fisher Scientific Inc., PV3189) was diluted to 5 times with Milli-Q water, thereby preparing 1× Kinase Buffer. Using 1× Kinase Buffer, MYT1 protein (manufactured by Carna Biosciences, Inc.) was diluted to a concentration of 0.005 μM and Eu-Anti-GST Antibody was diluted to a concentration of 1 μM. […] To a 96 well-plate, 2.5 μL of a compound diluted with DMSO was added. […] The mixture was well mixed and then allowed to stand at room temperature for 30 minutes. Thereafter, fluorescence wavelengths of 665 nm and 615 nm generated by irradiation with excitation light of 340 nm were detected using Envision (manufactured by PerkinElmer). The proportion of Tracer bound to MYT1 protein was calculated for every condition by dividing the intensity at the fluorescence wavelength of 665 nm by the intensity at the fluorescence wavelength of 615 nm.

## Nc1c(-c2cc(F)c(F)c3[nH]ncc23)c2cc(O[C@H]3C[C@@H](F)C3)c3ncccc3c2[nH]c1=O [US20260062412, Compound C213]
  IC50: 0.83 nM

## N#C[C@H]1C[C@@H](Oc2cc3c(-c4cc(F)c(F)c5[nH]ncc45)c(N)c(=O)[nH]c3c3cccnc23)C1 [US20260062412, Compound C212]
  IC50: 1.2 nM

## CC[C@@H](C)Oc1cc2c(c3cccnc13)NC(=O)C(N)C2c1ccc(F)c2[nH]ncc12 (stereo partly drawn) [US20260062412, Compound C36]
  IC50: 4.2 nM
